Values joined by “and” are separate entries in the source; they are usually repeats but may differ in a detail not shown here. Equal values may be shown once.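 Step 1: Grow cells in 96-well plates. Step 2: Expose to compound for 48 hours at 5 concentrations. Step 3: Interpolate endpoints linearly; if unreached, use highest concentration. The concentration for 50% growth inhibition is given as GI50. Definition used: TGI = concentration required for complete inhibition of growth.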
Assays:
Experiment in all cases: inhibition of tumour cell growth, NCI panel, 48 h
[1] = tested on: A549 NSCLC
[2] = tested on: HCT-15 colon
[3] = tested on: UO-31 renal
[4] = tested on: SR leukemia
[5] = tested on: DU-145 prostate
[6] = tested on: HS 578T breast
[7] = tested on: HOP-62 NSCLC
[8] = tested on: MCF7 breast
[9] = tested on: K-562 leukemia
[10] = tested on: NCI-H460 lung

| SMILES | TGI [1] | TGI [2] | TGI [3] | TGI [4] | TGI [5] | TGI [6] | TGI [7] | TGI [8] | TGI [9] | TGI [10] | GI50 [1] | GI50 [2] | GI50 [3] | GI50 [7] | GI50 [8] | GI50 [9] | GI50 [10] | GI50 [4] | GI50 [5] | GI50 [6] |
| --- | --- | --- | --- | --- | --- | --- | --- | --- | --- | --- | --- | --- | --- | --- | --- | --- | --- | --- | --- | --- |
| Cc1ccc2ccc3ccc(C)nc3c2n1 | > 100 µM | > 100 µM | > 100 µM | > 100 µM | > 100 µM | > 100 µM | > 100 µM | 0.93 µM | > 100 µM | > 100 µM | – | – | – | – | – | – | – | – | – | – |
| Nc1cccc2c1C1=NNC(=O)CC1C2 (stereo not given) | > 100 µM | > 100 µM | > 100 µM | – | – | – | > 100 µM | > 100 µM | > 100 µM | > 100 µM | – | – | – | – | – | – | – | – | – | – |
| CNCCCNC1(c2cc3ccccc3s2)CCCCC1 | 20.4 µM | 21.7 µM | 7.36 µM | 3.44 µM | 24.2 µM | 29.1 µM | 22.4 µM | 15.5 µM | 4.11 µM | 9.09 µM | – | – | – | – | – | – | – | – | – | – |
| N#Cc1c(-c2cccc(Cl)c2)cc(-c2ccc(Cl)cc2)nc1N | 36.1 µM | 32.9 µM | 27.5 µM | 40 µM | > 100 µM | 40.5 µM | 36.3 µM | 38.3 µM | > 100 µM | 39.2 µM | – | – | – | – | – | – | – | – | – | – |
| CC(C)(O)CO/N=C1\C(c2c(O)[nH]c3ccccc23)=Nc2ccccc21 | 11.1 µM | 30.7 µM | 5.09 µM | > 100 µM | > 22.2 µM | > 100 µM | 16.4 µM | 7.16 µM | > 100 µM | 9.71 µM | – | – | – | – | – | – | – | – | – | – |
| Cc1c2cc[n+](C)cc2c(C)c2c1[nH]c1ccc(Cl)cc12 | 4.15 µM | > 100 µM | 42.8 µM | > 78.1 µM | 30.5 µM | 0.743 µM | 6.95 µM | 15.9 µM | 45.5 µM | 54 µM | – | – | – | – | – | – | – | – | – | – |
| CC1=NN(c2cccc(Cl)c2)C(=N/c2nc3ccccc3s2)/C1=C\c1cccs1 | – | > 100 µM | > 100 µM | 64.8 µM | > 100 µM | 73 µM | > 100 µM | > 100 µM | 93.4 µM | > 100 µM | – | – | – | – | – | – | – | – | – | – |
| C[C@H](N[C@H]1CCC[C@]1(O)C#Cc1ccc2c(c1)OCO2)c1ccccc1 | > 25 µM | > 25 µM | > 25 µM | > 25 µM | > 25 µM | > 25 µM | > 25 µM | > 25 µM | > 25 µM | > 25 µM | – | – | – | – | – | – | – | – | – | – |
| C[C@@H](CO)C1=CC(C#C[Si](C)(C)C)N(C(=O)Oc2ccccc2)c2ccccc21 (stereo not given in full) | 61.4 µM | 21.7 µM | 30.4 µM | > 100 µM | 48.1 µM | 47 µM | 30 µM | – | 95.5 µM | 37.4 µM | – | – | – | – | – | – | – | – | – | – |
| c1ccc2sc(C3(N4CCC5(CC4)OCCO5)CCCCC3)cc2c1 | > 100 µM | > 100 µM | > 100 µM | > 100 µM | > 100 µM | > 100 µM | > 100 µM | > 100 µM | > 100 µM | > 100 µM | – | – | – | – | – | – | – | – | – | – |
| C=Cc1cc(OC)c2c(c1)c(=O)oc1c2cc(OC)c2c(O)ccc(C3OC(C)C(O)C(C)(O)C3O)c21 (stereo not given) | 0.376 µM | 0.467 µM | – | 0.000187 µM | 0.00897 µM | 0.00683 µM | – | 0.36 µM | 0.947 µM | 0.00652 µM and 0.0584 µM | 0.000716 µM | 0.000552 µM | 0.00184 µM | 0.0967 nM | 3.58e-05 µM | 0.00037 µM | 0.000484 µM | – | – | – |
| Cc1c(NC(=O)c2cc([N+](=O)[O-])cc([N+](=O)[O-])c2)c(=O)n(-c2ccccc2)n1C | > 100 µM | > 100 µM | > 100 µM | > 100 µM | > 100 µM | > 100 µM | > 100 µM | > 100 µM | > 100 µM | > 100 µM | – | – | – | – | – | – | – | – | – | – |
| O=C(Nc1cccc([N+](=O)[O-])c1)C(=O)C(C(=O)c1ccccc1F)C1OC(=O)C2C=CC=CC21 (stereo not given) | > 100 µM | > 100 µM | > 100 µM | 84.7 µM | – | – | > 100 µM | – | > 100 µM | > 100 µM | – | – | – | – | – | – | – | – | – | – |
| N#CCCOCN(CO)c1nc(N(CO)COCCC#N)nc(N(CO)COCCC#N)n1 | 58.3 µM | 37.3 µM | 43.2 µM | 41.7 µM | – | – | > 100 µM | – | 61.2 µM | 81.3 µM | – | – | – | – | – | – | – | – | – | – |
| O=C(Nc1sccc1S(=O)(=O)c1ccc(Cl)cc1)c1ccccc1 | > 100 µM | > 100 µM | > 100 µM | > 100 µM | > 100 µM | > 100 µM | > 100 µM | > 100 µM | > 100 µM | > 100 µM | – | – | – | – | – | – | – | – | – | – |
| O=C1/C(=C/c2ccc(Cl)cc2)N=C(c2ccccc2)N1c1nc2c(Cl)cc(Cl)cc2s1 | 68.7 µM | > 100 µM | 79.8 µM | 42.5 µM | > 100 µM | 90.1 µM | > 100 µM | > 100 µM | > 100 µM | > 100 µM | – | – | – | – | – | – | – | – | – | – |
| COc1cc2c(cc1OC)C1Cc3cc(OC)c(OC)cc3C(C2)O1 | > 100 µM | – | > 100 µM | – | > 100 µM | – | > 100 µM | > 100 µM | > 100 µM | > 100 µM | – | – | – | – | – | – | – | – | – | – |
| O=C(NCCNc1nccc(-c2c(-c3cccc(O)c3)nc3sccn23)n1)Nc1cccc(C(F)(F)F)c1 | 8.44 µM | 24.1 µM | 16.8 µM | 40 µM | 30 µM | 17.8 µM | 23.4 µM | 16 µM | 57.1 µM | 20.8 µM | 2.98 µM | 4.26 µM | 3.25 µM | 8330 nM | 3.57 µM | 3.42 µM | 4.79 µM | 6.08 µM | 5.37 µM | 3.56 µM |
| CC(=O)OC[C@@]1(C)[C@@H]2[C@@H]3[C@@]4(CO[C@]3(C)C(=O)[C@@]3(O)C[C@H](C)[C@H](OC(C)=O)[C@@H]3[C@H]4OC(C)=O)[C@H](OC(=O)c3ccccc3)C[C@@H]21 | > 100 µM | > 100 µM | > 100 µM | > 100 µM | > 100 µM | > 100 µM | > 100 µM | > 100 µM | > 100 µM | > 100 µM | – | – | – | – | – | – | – | – | – | – |
| CNS(=O)(=O)c1ccc2[nH]c(O)c(C3=Nc4ccccc4C3=O)c2c1 | > 100 µM | > 100 µM | > 100 µM | – | > 100 µM | > 100 µM | > 100 µM | – | > 100 µM | > 100 µM | – | – | – | – | – | – | – | – | – | – |
| COc1cc(NC(=O)CSc2nc3ccccc3c(=O)n2CCc2ccccc2)cc(OC)c1OC | – | – | – | – | > 100 µM | > 100 µM | 4.88 µM | > 100 µM | – | – | – | – | – | 2120 nM | 4.44 µM | – | – | – | 4.98 µM | 3.52 µM |
| CCCC1=C(C(=O)OCC)C(c2ccccc2OC)C(C#N)=C(N)O1 (stereo not given) | > 100 µM | > 100 µM | > 100 µM | > 100 µM | > 100 µM | > 100 µM | > 100 µM | > 100 µM | > 100 µM | > 100 µM | > 100 µM | 50.3 µM | 37.5 µM | > 100000 nM | 28.4 µM | 31.9 µM | 39.8 µM | 29.1 µM | 29.3 µM | > 100 µM |
| NC(=O)Nc1ccc(C(=O)NCCCNC(=O)c2ccc(NC(N)=O)cc2)cc1 | > 100 µM | > 100 µM | > 100 µM | > 100 µM | > 100 µM | > 100 µM | > 100 µM | > 100 µM | > 100 µM | > 100 µM | – | – | – | – | – | – | – | – | – | – |
| CSc1ccc(-c2cc(-c3nc4ccccc4[nH]3)nc(N)c2C#N)cc1 | > 100 µM | 61.9 µM | – | 65.8 µM | 66.9 µM | > 100 µM | 42.1 µM | 54.6 µM | 58.6 µM | 72.5 µM | – | – | – | – | – | – | – | – | – | – |
| O=C1C(c2c(O)[nH]c3ccccc23)=Nc2ccc(Br)cc21 | > 100 µM | > 100 µM | 70.7 µM | > 100 µM | > 100 µM | 72.8 µM | 74.1 µM | 18.2 µM | > 100 µM | > 100 µM | – | – | – | – | – | – | – | – | – | – |
| Cc1nc2c(O)cc3c4c(n(Cc5ccccc5)c3c2nc1C)C(=O)CCC4 | > 100 µM | > 100 µM | > 100 µM | > 100 µM | > 100 µM | > 100 µM | 39.9 µM | > 100 µM | > 100 µM | > 100 µM | – | – | – | – | – | – | – | – | – | – |
| CC(=O)N1CC(=O)NC1=S | > 100 µM | > 100 µM | > 100 µM | > 100 µM | – | – | > 100 µM | – | > 100 µM | – | – | – | – | – | – | – | – | – | – | – |
| O=C1C(=c2cc3c(c4ccccc24)=NC24CCCCC2C(c2ccccc2)C=C(c2ccccc2)N34)C(=O)c2ccccc21 (stereo not given) | > 100 µM | – | > 100 µM | 79.7 µM | > 100 µM | > 100 µM | > 100 µM | > 100 µM | > 100 µM | – | – | – | – | – | – | – | – | – | – | – |

— PubChem BioAssay (NCI)
